# Results from patent US20250339566A1, “INHIBITORS OF FIBROBLAST ACTIVATION PROTEIN” (UNIVERSITEIT ANTWERPEN, priority 2022, published 2025).
# Read-outs that look alike come from different tables or passages of the source.
# Tests used:
# Type in all cases: biochemical
# [1] = target: T1, human DPP8 (Homo sapiens, UniProt Q6V1X1); assay: DPP8 IC50 measurement (Ala-Pro-pNA); conditions: for Selectivity index DPP8: IC50(DPP8)/IC50(FAP); for IC50: read-out: DPP8 IC50
# T1 construct: made in house; host or cells: Sf9 insect cells (baculovirus)
# T1 sequence (Q6V1X1 whole entry): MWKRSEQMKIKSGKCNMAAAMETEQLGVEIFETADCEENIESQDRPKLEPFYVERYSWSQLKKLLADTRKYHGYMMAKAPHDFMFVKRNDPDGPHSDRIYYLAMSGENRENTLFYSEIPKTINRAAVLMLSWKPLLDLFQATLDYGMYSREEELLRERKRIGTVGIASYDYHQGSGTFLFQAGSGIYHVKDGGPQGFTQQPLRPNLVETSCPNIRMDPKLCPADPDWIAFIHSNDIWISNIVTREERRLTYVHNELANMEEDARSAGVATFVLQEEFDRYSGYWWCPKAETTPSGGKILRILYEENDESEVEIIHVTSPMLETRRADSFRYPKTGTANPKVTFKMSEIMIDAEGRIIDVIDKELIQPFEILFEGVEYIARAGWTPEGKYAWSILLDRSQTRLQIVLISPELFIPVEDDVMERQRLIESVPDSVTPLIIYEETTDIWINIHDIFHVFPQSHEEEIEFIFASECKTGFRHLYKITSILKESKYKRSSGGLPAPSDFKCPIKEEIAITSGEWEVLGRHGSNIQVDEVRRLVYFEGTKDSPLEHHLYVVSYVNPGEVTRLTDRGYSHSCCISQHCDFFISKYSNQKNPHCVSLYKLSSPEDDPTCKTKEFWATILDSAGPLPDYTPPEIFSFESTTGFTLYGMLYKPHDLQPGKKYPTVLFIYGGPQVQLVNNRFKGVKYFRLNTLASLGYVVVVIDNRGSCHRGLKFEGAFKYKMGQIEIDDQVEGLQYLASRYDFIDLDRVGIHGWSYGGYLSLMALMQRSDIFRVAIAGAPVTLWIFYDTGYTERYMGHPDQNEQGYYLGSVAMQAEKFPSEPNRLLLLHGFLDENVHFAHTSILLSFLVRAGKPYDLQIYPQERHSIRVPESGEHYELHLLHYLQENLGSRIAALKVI
# Description: (§1) Used Enzymes in these Assays: • A gateway-entry clone for human FAP was purchased from Dharmacon (Accession number DQ891423) and the human secretion signal was replaced with the HoneyBee mellitin secretion signal. For transfection and expression of FAP in Sf9 insect cells the C-terminal BaculoDirect kit from LifeTechnologies was used. The enzyme was purified from the supernatant of the insect cells using immobilized Ni-chelating chromatography (GE healthcare, Diegem, Belgium), followed by anion-exchange chromatography using a 1 mL HiTrap Q and size exclusion chromatography using the Superdex 200 column (GE healthcare, Diegem, Belgium). • Human recombinant PREP was expressed in BL21(DE3) cells and purified using immobilized Co-chelating chromatography (GE healthcare), followed by anion-exchange chromatography on a 1 ml Mono Q column (GE healthcare). • DPP4 was purified from human seminal plasma. • Gateway-entry clones for human DPP8 and DPP9 were purchased from Dharmacon (Accession numbers DQ891733 and DQ892325 respectively). For transfection and expression of DPP8 and DPP9 in Sf9 insect cells the N-terminal BaculoDirect kit from LifeTechnologies was used. The enzymes were purified using immobilized Ni-chelating chromatography (GE healthcare, Diegem, Belgium), followed by anion-exchange chromatography using a 1 mL Mono Q (GE healthcare, Diegem, Belgium). • Recombinant human DPP2 was purchased from R&D.
# (§2) Eight concentrations of inhibitors/probe were tested. The final DMSO concentration was kept constant during the experiment to exclude any effects. Inhibitors were pre-incubated with the enzyme for 15 minutes at 37° C., afterwards the substrate was added and the velocities of AMC release were measured kinetically at λex=380 nm, λem=465 nm for at least 10 minutes at 37° C. […] Eight concentrations of inhibitors were tested. The final DMSO concentration in kept constant during the experiment to exclude any effects. Inhibitors were pre-incubated with the enzyme for 15 minutes at 37° C., afterwards the substrate was added and the velocities of AMC release were measured kinetically at λex=380 nm, λem=465 nm for at least 10 minutes at 37° C. […] At least eight different inhibitor concentrations were used. The final DMSO concentration is kept constant during the experiment to exclude any effects. Inhibitors were pre-incubated with the enzyme for 15 minutes at 37° C., afterwards the substrate was added and the velocities of pNA release were measured kinetically at 405 nm for at least 10 minutes at 37° C. Measurements were done on the Infinite 200 (Tecan Group Ltd.) and the Magellan software was used to process the data. • For DPP2: Initial velocity measurements were carried out. Lys-Ala-pNA was used as the substrate at a concentration of 1 mM at pH 5.5 (100 mM NaAc, 10 mM EDTA, 14 μg/mL aprotinin). Inhibitors were tested at one concentration, 5 μM, being the final concentration in the well. Inhibitors were pre-incubated with the enzyme for 15 minutes at 37° C., afterwards the substrate was added and the velocities of pNA release were measured kinetically at 405 nm for at least 10 minutes at 37° C. Measurements were done on the Infinite 200 (Tecan Group Ltd.) and the Magellan software was used to process the data.
# [2] = target: T2, human FAP (Homo sapiens, UniProt Q12884); assay: FAP IC50 measurement (Z-Gly-Pro-AMC); conditions: Z-Gly-Pro-AMC 50 μM, pH 8, 15 min pre-incubation
# T2 construct: the human secretion signal was replaced with the HoneyBee mellitin secretion signal; honeybee melittin secretion signal (replaces the native signal) (N); made in house; host or cells: Sf9 insect cells (baculovirus), purified from supernatant
# T2 sequence (Q12884 26-760 limits assumed): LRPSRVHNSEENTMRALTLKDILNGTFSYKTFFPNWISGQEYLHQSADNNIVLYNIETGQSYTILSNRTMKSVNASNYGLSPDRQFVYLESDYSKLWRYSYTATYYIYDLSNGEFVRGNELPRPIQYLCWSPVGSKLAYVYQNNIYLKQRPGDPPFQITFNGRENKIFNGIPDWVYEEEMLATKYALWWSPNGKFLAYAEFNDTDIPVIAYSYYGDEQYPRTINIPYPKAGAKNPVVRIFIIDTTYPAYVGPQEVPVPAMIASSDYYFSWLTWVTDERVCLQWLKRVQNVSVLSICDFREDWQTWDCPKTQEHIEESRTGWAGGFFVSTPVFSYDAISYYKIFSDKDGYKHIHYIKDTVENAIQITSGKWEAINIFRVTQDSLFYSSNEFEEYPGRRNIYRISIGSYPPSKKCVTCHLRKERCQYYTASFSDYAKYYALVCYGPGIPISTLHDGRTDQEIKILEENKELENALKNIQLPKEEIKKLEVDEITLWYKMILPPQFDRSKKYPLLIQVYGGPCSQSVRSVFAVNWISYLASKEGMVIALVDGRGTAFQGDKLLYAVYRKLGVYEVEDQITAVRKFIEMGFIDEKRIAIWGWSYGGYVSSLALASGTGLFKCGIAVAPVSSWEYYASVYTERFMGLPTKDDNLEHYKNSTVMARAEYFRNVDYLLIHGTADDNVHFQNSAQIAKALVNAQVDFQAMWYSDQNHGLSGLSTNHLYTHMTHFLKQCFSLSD
# Description: as §1, §2
# [3] = target: T3, Human recombinant PREP (Homo sapiens, UniProt P48147); assay: PREP IC50 measurement (N-succinyl-Gly-Pro-AMC); conditions: for Selectivity index PREP: IC50(PREP)/IC50(FAP); for IC50: N-succinyl-Gly-Pro-AMC 250 μM, pH 7.4
# T3 construct: made in house; host or cells: E. coli BL21(DE3)
# T3 sequence (P48147 1-710): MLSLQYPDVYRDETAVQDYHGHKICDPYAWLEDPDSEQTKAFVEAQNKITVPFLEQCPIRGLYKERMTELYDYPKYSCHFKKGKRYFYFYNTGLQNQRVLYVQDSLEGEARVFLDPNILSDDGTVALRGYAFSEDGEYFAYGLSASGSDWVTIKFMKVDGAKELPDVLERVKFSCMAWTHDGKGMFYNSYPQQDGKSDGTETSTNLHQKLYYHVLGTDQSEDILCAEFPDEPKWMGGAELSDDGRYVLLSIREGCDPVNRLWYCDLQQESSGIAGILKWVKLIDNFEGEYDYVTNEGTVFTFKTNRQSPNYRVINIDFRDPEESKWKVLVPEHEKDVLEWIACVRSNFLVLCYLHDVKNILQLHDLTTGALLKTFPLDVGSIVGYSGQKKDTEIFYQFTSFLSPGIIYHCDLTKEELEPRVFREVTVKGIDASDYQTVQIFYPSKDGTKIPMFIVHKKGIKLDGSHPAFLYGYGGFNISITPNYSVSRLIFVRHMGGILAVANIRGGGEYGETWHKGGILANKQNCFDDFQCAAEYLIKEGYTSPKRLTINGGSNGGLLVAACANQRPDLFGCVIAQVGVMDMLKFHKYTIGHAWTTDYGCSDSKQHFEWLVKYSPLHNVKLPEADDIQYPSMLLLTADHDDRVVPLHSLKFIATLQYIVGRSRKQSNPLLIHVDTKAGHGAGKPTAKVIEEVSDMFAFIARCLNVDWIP
# Description: as §1, §2
# [4] = target: T4, DPP4 (Homo sapiens, UniProt P27487); assay: DPP4 IC50 measurement (Ala-Pro-pNA); conditions: for Selectivity index DPP4: IC50(DPP4)/IC50(FAP); for IC50: Ala-Pro-pNA 25 μM, pH 7.4
# T4 construct: DPP4 was purified from human seminal plasma; from tissue; host or cells: human seminal plasma
# T4 sequence (P27487 whole entry): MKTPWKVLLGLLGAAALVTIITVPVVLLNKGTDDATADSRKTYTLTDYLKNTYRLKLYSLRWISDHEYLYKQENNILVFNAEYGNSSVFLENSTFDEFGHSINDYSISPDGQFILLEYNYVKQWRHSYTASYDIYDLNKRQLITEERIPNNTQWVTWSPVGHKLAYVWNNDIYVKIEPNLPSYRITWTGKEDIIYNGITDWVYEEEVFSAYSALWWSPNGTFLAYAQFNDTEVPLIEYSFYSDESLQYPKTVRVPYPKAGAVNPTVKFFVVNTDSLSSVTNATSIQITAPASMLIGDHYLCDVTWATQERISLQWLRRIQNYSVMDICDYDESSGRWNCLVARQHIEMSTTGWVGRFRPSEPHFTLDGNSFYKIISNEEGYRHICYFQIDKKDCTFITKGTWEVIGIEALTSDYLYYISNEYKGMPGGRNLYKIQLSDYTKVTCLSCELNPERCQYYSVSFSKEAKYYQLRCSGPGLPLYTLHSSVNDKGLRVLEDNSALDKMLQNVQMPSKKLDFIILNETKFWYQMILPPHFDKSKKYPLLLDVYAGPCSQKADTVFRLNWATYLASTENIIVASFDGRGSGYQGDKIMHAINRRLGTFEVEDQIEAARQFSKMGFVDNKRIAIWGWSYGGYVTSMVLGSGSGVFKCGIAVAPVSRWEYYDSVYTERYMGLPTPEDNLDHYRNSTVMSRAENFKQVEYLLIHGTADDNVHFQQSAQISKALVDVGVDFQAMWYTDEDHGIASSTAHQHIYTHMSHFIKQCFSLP
# Description: as §1, §2
# [5] = target: T5, human DPP9 (Homo sapiens, UniProt Q86TI2); assay: DPP9 IC50 measurement (Ala-Pro-pNA); conditions: for Selectivity index DPP9: IC50(DPP9)/IC50(FAP); for IC50: Ala-Pro-pNA 150 μM, pH 7.4
# T5 construct: made in house; host or cells: Sf9 insect cells (baculovirus)
# T5 sequence (Q86TI2 whole entry): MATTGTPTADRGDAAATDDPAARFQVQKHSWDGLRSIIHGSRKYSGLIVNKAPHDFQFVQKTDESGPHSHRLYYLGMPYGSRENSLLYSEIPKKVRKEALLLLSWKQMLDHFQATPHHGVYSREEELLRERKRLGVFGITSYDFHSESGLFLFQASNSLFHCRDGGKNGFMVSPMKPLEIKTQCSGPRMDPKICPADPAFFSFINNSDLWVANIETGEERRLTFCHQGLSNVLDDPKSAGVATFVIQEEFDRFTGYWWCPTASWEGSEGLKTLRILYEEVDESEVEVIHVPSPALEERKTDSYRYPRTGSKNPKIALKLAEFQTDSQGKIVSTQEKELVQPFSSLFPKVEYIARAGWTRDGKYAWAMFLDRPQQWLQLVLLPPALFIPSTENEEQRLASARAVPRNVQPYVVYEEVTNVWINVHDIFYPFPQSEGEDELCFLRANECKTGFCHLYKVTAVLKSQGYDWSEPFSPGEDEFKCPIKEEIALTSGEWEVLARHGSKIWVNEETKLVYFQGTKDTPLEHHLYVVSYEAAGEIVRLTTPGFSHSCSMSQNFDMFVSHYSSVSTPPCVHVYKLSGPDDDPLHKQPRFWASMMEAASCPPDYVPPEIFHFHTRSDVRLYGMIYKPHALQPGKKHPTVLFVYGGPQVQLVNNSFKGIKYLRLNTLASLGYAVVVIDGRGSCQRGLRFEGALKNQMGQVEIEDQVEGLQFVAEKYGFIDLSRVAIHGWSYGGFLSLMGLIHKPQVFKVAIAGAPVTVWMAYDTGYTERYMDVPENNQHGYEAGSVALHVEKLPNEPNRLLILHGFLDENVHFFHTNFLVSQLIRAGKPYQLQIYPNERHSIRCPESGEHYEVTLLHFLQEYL
# Description: as §1, §2
Selectivity index DPP8 [1],IC50 [2],Selectivity index PREP [3],IC50 [3],Selectivity index DPP4 [4],Selectivity index DPP9 [5],"IC50 ([1]; Ala-Pro-pNA 300 μM, pH 7.4)",IC50 [4],IC50 [5],IC50 ([1]; heading: DPP8 IC50),SMILES
>20000,0.00049 ± 1e-06 µM,>10000,5.33 ± 0.71 µM,>20000,>20000,,,,,"C[N+](C)(CF)CCOCCOc1ccc2nccc(C(=O)NCC(=O)N3CC(F)(F)C[C@H]3C#N)c2c1.Cc1ccc(S(=O)(=O)[O-])cc1 [Compound 9, (S)-2-(2-((4-((2-(2-cyano-4,4-difluoropyrrolidin-1-yl)-2-oxoethyl)carbamoyl)quinolin-6-yl)oxy)ethoxy)-N-(fluoromethyl)-N,N-dimethylethan-1-aminium 4-methylbenzenesulfonate]"
>10000,0.00095 ± 0.0001 µM,>10000,> 10 µM,>10000,>1000,> 10 µM,> 10 µM,> 1 µM,,"C[N+]1(CCCOc2ccc3nccc(C(=O)NCC(=O)N4CC(F)(F)C[C@H]4C#N)c3c2)CCN(C(=O)c2ccc(F)cc2)CC1 [Compound 14, (S)-1-(3-((4-((2-(2-cyano-4,4-difluoropyrrolidin-1-yl)-2-oxoethyl)carbamoyl)quinolin-6-yl)oxy)propyl)-4-(4-fluorobenzoyl)-1-methylpiperazin-1-ium]"
,,,,,,,,,> 10 µM,"N#C[C@@H]1CC(F)(F)CN1C(=O)CNC(=O)c1ccnc2ccccc12 [UAMC1110, reference compound]"
>36000,0.00027 ± 2e-05 µM,>36000,> 10 µM,>36000,>36000,> 10 µM,> 10 µM,> 10 µM,,"C[N+](C)(C)CCOCCOCCOc1ccc2nccc(C(=O)NCC(=O)N3CC(F)(F)C[C@H]3C#N)c2c1.Cc1ccc(S(=O)(=O)[O-])cc1 [Compound 7, (S)-2-(2-(2-((4-((2-(2-cyano-4,4-difluoropyrrolidin-1-yl)-2-oxoethyl)carbamoyl)quinolin-6-yl)oxy)ethoxy)ethoxy)-N,N,N-trimethylethan-1-aminium 4-methylbenzenesulfonate]"
>1300,0.00942 ± 0.00344 µM,>1300,> 10 µM,>1300,>1300,> 10 µM,> 10 µM,> 10 µM,,"C[N+](C)(CCF)CCOCCOc1ccc2nccc(C(=O)NCC(=O)N3CC(F)(F)C[C@H]3C#N)c2c1 [Compound 8, (S)-2-(2-((4-((2-(2-cyano-4,4-difluoropyrrolidin-1-yl)-2-oxoethyl)carbamoyl)quinolin-6-yl)oxy)ethoxy)-N-(2-fluoroethyl)-N,N-dimethylethan-1-aminium 4-methylbenzenesulfonate]"
>21000,0.00046 ± 4e-05 µM,>2100,> 1 µM,>2100,>21000,> 10 µM,> 1 µM,> 10 µM,,"C[N+](C)(CF)CCOCCOCCOc1ccc2nccc(C(=O)NCC(=O)N3CC(F)(F)C[C@H]3C#N)c2c1 [Compound 10, (S)-2-(2-(2-((4-((2-(2-cyano-4,4-difluoropyrrolidin-1-yl)-2-oxoethyl)carbamoyl)quinolin-6-yl)oxy)ethoxy)ethoxy)-N-(fluoromethyl)-N,N-dimethylethan-1-aminium hexafluorophosphate(V)]"
>2200,0.00044 ± 0.0001 µM,>22000,> 10 µM,>22000,>2200,> 1 µM,> 10 µM,0.67 ± 0.03 µM,,"C[N+]1(CCCOc2ccc3nccc(C(=O)NCC(=O)N4CC(F)(F)C[C@H]4C#N)c3c2)CCN(C(=O)c2ccc(I)cc2)CC1 [Compound 13, (S)-1-(3-((4-((2-(2-cyano-4,4-difluoropyrrolidin-1-yl)-2-oxoethyl)carbamoyl)quinolin-6-yl)oxy)propyl)-4-(4-iodobenzoyl)-1-methylpiperazin-1-ium hexafluorophosphate(V)]"
